# Results taken from patent US4794122A, “Novel benzimidazolyl-thiomethyl-benzothiazoles” (Uclaf; Roussel, priority 1986, dated 1988).
# pIC50: −log10 of the molar value.
# Biological target: T1, 5-lipoxygenase (Rattus norvegicus, UniProt P12527)
# T1 construct: prelabelled rat peritoneal neutrophils; endogenous in cells; host or cells: rat peritoneal neutrophils
# T1 sequence (P12527 1-673): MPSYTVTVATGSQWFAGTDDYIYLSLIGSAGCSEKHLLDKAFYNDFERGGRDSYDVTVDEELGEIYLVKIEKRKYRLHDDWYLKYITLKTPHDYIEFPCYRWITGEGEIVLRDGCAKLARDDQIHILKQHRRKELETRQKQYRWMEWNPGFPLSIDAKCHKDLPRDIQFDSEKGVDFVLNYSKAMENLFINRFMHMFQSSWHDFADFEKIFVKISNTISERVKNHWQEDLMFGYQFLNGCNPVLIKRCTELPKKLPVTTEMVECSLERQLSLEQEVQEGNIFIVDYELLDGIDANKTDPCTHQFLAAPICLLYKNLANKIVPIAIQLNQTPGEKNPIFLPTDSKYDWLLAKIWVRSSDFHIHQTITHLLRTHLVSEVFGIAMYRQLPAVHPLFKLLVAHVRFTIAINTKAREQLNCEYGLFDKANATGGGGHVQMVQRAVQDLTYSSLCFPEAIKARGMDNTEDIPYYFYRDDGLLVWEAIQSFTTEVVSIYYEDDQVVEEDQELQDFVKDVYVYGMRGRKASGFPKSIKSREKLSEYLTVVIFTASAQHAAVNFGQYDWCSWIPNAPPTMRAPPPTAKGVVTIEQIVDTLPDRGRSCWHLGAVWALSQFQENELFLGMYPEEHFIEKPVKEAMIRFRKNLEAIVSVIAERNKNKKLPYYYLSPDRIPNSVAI
# Assay: Inhibition of Ca++ ionophore (A23187)-induced release of 5-lipoxygenase products (leukotriene B4 and 5-HETE) from [14C]-arachidonic acid prelabelled rat peritoneal neutrophils
# Type: cell-based
# Details: A23187-induced release of leukotriene B4 and 5-HETE, determined graphically from dose response curves, read-out: micro molecular concentration of the compounds causing a 50% inhibition of the control response for 5-lipoxygenase
# Procedure: Inhibition of Ca^++ ionophore (A23187)-induced release of 5-lipoxygenase products (leukotriene B4 and 5-HETE) from [^14 C]-arachidonic acid prelabelled rat peritoneal neutrophils was determined by a modification of the method of Ahnfelt-Ronne et al [Biochemical Pharmacology, Vol. 31, (1982), No. 16, p. 2619-2624].
row,pIC50,Structure (SMILES)
1,5.46,"c1ccc2[nH]c(SCc3nc4ccccc4s3)nc2c1 [Example 1, 2-(1H-benzimidazol-2-yl-thiomethyl)-benzothiazole]"
2,6.23,"Clc1ccc2[nH]c(SCc3nc4ccccc4s3)nc2c1 [Example 2, 2-(5-chloro-1H-benzimidazol-2-yl-thiomethyl)benzothiazole]"
3,6.64,"Clc1cc2nc(SCc3nc4ccccc4s3)[nH]c2cc1Cl [Example 3, 2-(5,6-dichloro-1H-benzimidazol-2-yl-thiomethyl)benzothiazole]"
